Values quoted from earlier work as cited in US20100172957A1, “EFLUCIMIBE MEDICAMENTS FOR PREVENTING/TREATING A DISEASE DUE TO SEBACEOUS GLAND DYSFUNCTION IN HUMANS OR ANIMALS” (GALDERMA RESEARCH & DEVELOPMENT, priority 2007, published 2010).

System: sebum production
Conditions: current treatment, background statement

CC1=C(/C=C/C(C)=C/C=C/C(C)=C\C(=O)O)C(C)(C)CCC1 [isotretinoin]
decrease of sebum production: ~90%
